Results published in patent US20100120703A1, “COMPOSITIONS AND METHODS FOR TREATING CANCER” (priority 2007, published 2010).

How the values were obtained:
Sprague Dawley (SD) rats = assay: Histological analysis and GST-p immunostaining of liver, promotion stage; type: in vivo, rat
From the text: In the promotion stage experiment, rats in the negative control group received weekly intraperitoneal (i.p.) injection of DMSO for the first 2 weeks and then Corn Oil for the rest of the schedule. Rats in the positive control and SIN-treatment groups both received weekly intraperitoneal (i.p.) injection of the carcinogen DEN for the first 2 weeks and then promoter, Carbon Tetrachloride (CCl4) for the rest of the schedule. Two weeks of fasting were inserted between the initiator carcinogen treatment and the promoter CCl4 treatment. During the fasting period of 2 weeks, rats were fasted for 5 days, followed by a 2 day feeding, and another 5 days of fasting. Water was given ad libitum. Negative and positive control groups received oral treatment of water once a day after fasting. Sinigrin with dosage 15 mg/kg was administered orally to the treatment group daily for 28 weeks after fasting.
Histological analysis was performed to observe the basic structure of the hepatocytes. Xylene was purchased from Mallinckrodt. Ethanol was purchased from BDH. ABC staining (Anti-rabbit) kit (sc-2018) was purchased from Santa Cruz. Superfrost Microscope slide was purchased from Fisher. 30% H2O2, DAB and Formaldehyde were purchased from Sigma. Anti-GST-pi rabbit polyclonal antibody was purchased from MBL.
The liver samples were fixed with 10% formaldehyde and put in cassettes for dehydration and fixed with wax. […]

HepG2 cells = assay: Cell cycle analysis by flow cytometry (PI); type: cell-based, human
Method: Flow Cytometery is a rapid and quantitative method for measuring certain physical and chemical characteristics of cells or particles as they travel in suspension through a sensor. When the cell is labeled with propidium iodide (PI), the DNA content can be measured which is used to determine the stage of the cell cycle. When cell cycles are obtained, a cell cycle map can be recorded.
HepG2 cells were trypsinized, washed and seeded into […] culture plates in complete RPMI medium. After 24 hours of pre-incubation, different concentrations (250 μM and 500 μM) of SIN were added to the culture plates. The complete RPMI medium was added to one plate containing control cells. After different periods of incubation with SIN, cells were harvested, the medium was removed from the culture plate and the plate was washed twice with 2 ml of 1×PBS buffer. All of the solutions were collected, and the cells were trypsinized and collected. The whole solution was centrifuged at 1,000 rpm for 3 minutes. The supernatant was removed and the cell pellet was resuspended in 1 ml 1×PBS buffer for washing. […]
The cell pellet was resuspended in 1 ml of 70% ethanol and 0.1 ml of 1×PBS buffer. […] DNA content was analyzed using an FACScan Flow cytometry with sufficient Sheath Fluid. The results were analyzed by the FCS express software produced by the De Novo Software Company.

## C=CC/C(=N/OS(=O)(=O)[O-])S[C@@H]1OC(CO)[C@@H](O)C(O)C1O.[K+] (stereo partly shown) [SIN, sinigrin]
Sprague Dawley (SD) rats; 15 mg/kg oral daily
  hepatocyte structure in liver sections (H&E): the basic structure of hepatocytes and the central vein were restored
Sprague Dawley (SD) rats; positive control 35%
  GST-p positive area / whole section area: 5%
HepG2 cells; 0.5 mM SIN, 96 hours
  cells arrested in sub G1 phase vs untreated cells: the increase of the cells arrested in sub G1 phase becomes very obvious
HepG2 cells; SIN treatment, 24-96 hours
  cell cycle effect in HepG2 cells: G0/G1 phase arrest
